Data on one molecule can be found in patent US12208108B2, “Drug targets of delayed aging and human brain diseases” (Texas Tech University System, priority 2016, dated 2025).

Test [1] addresses T1, colocalization of Drp1 and Aβ (Homo sapiens, UniProt O00429).
T1 construct: SHSY5Y cells incubated with Aβ peptide 1-42 (20 uM final concentration); Anaspec (Aβ 1-42 peptide); host or cells: SHSY5Y human neuroblastoma cells
In words: Double-labeling immunofluorescence analysis of Drp1 and Aβ. The test is classed as cell-based. On the procedure: Double-labeling immunofluorescence analysis of Drp1 and Aβ. To determine whether Drp1 localizes and interacts with Aβ, the inventors conducted double-labeling analysis of Drp1 and Aβ in DDQ pre-treated, post-treated and untreated, Aβ incubated cells.
Double labeling immunofluorescence analysis of Drp1 and Aβ. To determine the interaction between Drp1 and Aβ, the inventors conducted double-labeling immunofluorescence analysis, using an anti-Drp1 antibody (rabbit polyclonal, Santa Cruz Biotechnology) and 6E10 (Covance). As described earlier, the sections from AD patients and control subjects were deparaffinized and treated with sodium borohydrate to reduce autofluorescence.
For the first labeling, the Aβ incubated (DDQ pre-treated, post-treated and untreated) cells were incubated overnight with the anti-Drp1 antibody (1:200) at room temperature. On the day after this primary antibody incubation, the sections were washed with 0.5% Triton in PBS. They were then incubated with a secondary biotinylated anti-rabbit antibody at a 1:400 dilution (Vector Laboratories, Burlingame, Calif., USA) or a secondary biotinylated anti-mouse antibody (1:400) for 1 h at room temperature. They were incubated for 1 h with labeled streptavidin, an HRP solution (Molecular Probes). […]

In test [2] the target is T2, interaction of Aβ with Drp1 (Homo sapiens, UniProt O00429).
T2 construct: SHSY5Y cells incubated with Aβ peptide 1-42 (20 uM final concentration); Anaspec (Aβ 1-42 peptide); host or cells: SHSY5Y human neuroblastoma cells
T2 sequence (O00429 whole entry): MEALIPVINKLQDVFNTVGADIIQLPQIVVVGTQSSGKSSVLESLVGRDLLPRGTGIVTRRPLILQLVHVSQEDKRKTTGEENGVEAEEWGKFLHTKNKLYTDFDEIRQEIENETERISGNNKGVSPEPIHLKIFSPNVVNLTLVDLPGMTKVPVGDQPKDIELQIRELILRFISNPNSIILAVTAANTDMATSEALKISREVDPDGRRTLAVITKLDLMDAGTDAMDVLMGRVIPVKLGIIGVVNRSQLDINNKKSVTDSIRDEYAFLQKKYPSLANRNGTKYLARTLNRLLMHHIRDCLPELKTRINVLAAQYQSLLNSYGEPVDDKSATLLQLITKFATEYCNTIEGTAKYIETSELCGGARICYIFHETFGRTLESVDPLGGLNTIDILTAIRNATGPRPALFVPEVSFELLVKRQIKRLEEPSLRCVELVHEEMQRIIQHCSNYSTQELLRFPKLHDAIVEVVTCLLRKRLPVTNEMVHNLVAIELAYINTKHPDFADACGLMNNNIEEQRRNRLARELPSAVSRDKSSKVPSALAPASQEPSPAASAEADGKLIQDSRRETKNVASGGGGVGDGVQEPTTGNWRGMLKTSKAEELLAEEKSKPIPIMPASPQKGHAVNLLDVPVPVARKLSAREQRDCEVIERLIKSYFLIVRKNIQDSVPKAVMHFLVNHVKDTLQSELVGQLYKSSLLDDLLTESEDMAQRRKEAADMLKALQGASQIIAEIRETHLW
In words: Co-immunoprecipitation of Aβ and Drp1 in SHSY5Y cells. The test is classed as cell-based. On the procedure: Co-immunoprecipitation and immunoblotting analysis using DDQ treated SHSY5Y cells+Aβ. To determine whether DDQ reduces the interaction of Aβ with Drp1 in Aβ incubated cells, the inventors performed co-immunoprecipitation analysis using the Drp1 antibody, and immunoblotting analysis using Aβ recognizing 6E10 antibody and protein lysates of DDQ pre-treated, DDQ post-treated and Aβ incubated cells.
SHSY5Y cells, mutant APPSwe/Ind cells and co-immunoprecipitation analysis. SHSY5Y cells: To determine whether Aβ interact with Drp1, the inventors used protein lysates from Aβ incubated (DDQ pre-treated, post-treated and untreated) SHSY5Y cells.
The inventors performed co-immunoprecipitation (co-IP) assays using the Dynabeads Kit for Immunoprecipitation (Invitrogen). Briefly, 50 μL of Dynabeads containing protein G was incubated with 10 μg 6E10 or 10 μg of the Drp1 antibodies (both mono- and polyclonal antibodies; Santa Cruz), with rotation, for 1 h at room temperature. The inventors used all the reagents and buffers provided in the kit. Details of antibodies used for co-IP and western blotting are given Table 5. The Dynabeads-Aβ complex was washed three times with a washing buffer and was then incubated overnight with 400 μg of protein at 4° C., with rotation. […]

Test [3] relates to SHSY5Y cells. In words: Transmission electron microscopy, mitochondrial number and length. The format is cell-based, Human. The text has this:
Transmission electron microscopy. To determine the effects of DDQ on mitochondrial number and morphology, and any rescual effects of DDQ on mitochondria in the untreated and Aβ treated cells, the inventors used TEM on untreated, DDQ, Aβ+DDQ and DDQ+Aβ, treated SHSY5Y cells.
Transmission electron microscopy. To determine the effects of DDQ on the numbers of mitochondria and any rescue effects of DDQ on mitochondria in the mutant SHSY5Y neurons, the inventors used TEM on untreated and treated SHSY5Y cells (as shown in FIG. 3). [Batches 1-5]. All SHSY5Y cells batches 1-5 were fixed in […] sodium cacodylate (pH 7.2), 2.5% glutaraldehyde, 1.6% paraformaldehyde, 0.064% picric acid and 0.1% ruthenium red. They were gently washed and post-fixed for 1 h in 1% osmium tetroxide plus […] potassium ferricyanide, in 100 mm sodium cacodylate, pH 7.2. After a thorough rinsing in water, the SHSY5Y cells were dehydrated, infiltrated overnight in 1:1 acetone:Epon 812 and infiltrated for 1 h with 100% Epon 812 resin. They were then embedded in the resin. After polymerization, 60 to 80 nm thin sections were cut on a Reichert ultramicrotome and stained for 5 min in lead citrate. They were rinsed and post-stained for 30 min in uranyl acetate and then were rinsed again and dried. Electron microscopy was performed at 60 kV on a Philips Morgagne TEM equipped with a CCD, and images were collected at magnifications of ×1000-37 000. The numbers of mitochondria were counted in the SHSY5Y cells batches 1-5, and statistical significance was determined, using one-way ANOVA.

Test [4] relates to SHSY5Y cells. Put plainly: ATP levels in isolated mitochondria. The test is classed as cell-based, Human. On the procedure:
ATP levels. ATP levels were measured in mitochondria isolated from SHSY5Y neurons of control and experimental treatments (n=4) using the ATP determination kit (Molecular Probes) as described in Manczak et al..

For test [5], the target named is T3, GTPase-Drp1 (Homo sapiens, UniProt O00429).
T3 construct: endogenous in cells; host or cells: SHSY5Y human neuroblastoma cells
T3 sequence (O00429 whole entry): as above
In words: GTPase-Drp1 activity from Drp1 IP elutes. The test is classed as cell-based. On the procedure:
GTPase-Drp1 activity: To determine whether Aβ affects GTPase-Drp1 activity in cells that treated with Aβ incubation, the inventors measured GTPase-Drp1 activity from Drp1 IP elutes of all cell treatments.

The mark [6] stands for this setting: Aβ + DDQ (Aβ1-42 20 μM 6 hrs, then DDQ 24 hrs) vs untreated cells.
The mark [7] stands for this setting: DDQ 250 nM 24 hrs vs untreated cells.
Where [8] appears, read: DDQ + Aβ (DDQ 24 hrs, then Aβ1-42 6 hrs) vs untreated cells.
Setting [9] is: DDQ post-treated (Aβ + DDQ) vs cells treated with Aβ alone.
Where [10] appears, read: DDQ-pre treated (DDQ + Aβ) vs cells treated with Aβ alone.

Molecules are shown by their SMILES.

T1 sequence (O00429 whole entry): as above

Turning to `CCOP(=O)(OCC)C(NCCc1ccc(O)c(O)c1)c1ccnc2ccccc12` (stereo not shown) [DDQ, diethyl(3,4-dihydroxyphenethylamine)(quinolin-4-yl)methylphosphonate], the “co-localization of Drp1 with Aβ” value in test [1] (DDQ post-treated Aβ incubated cells vs Aβ incubated cells alone) and in test [1] (DDQ pre-treated Aβ incubated cells vs Aβ incubated cells alone) was “reduced co-localization” each time. The “interaction between Aβ and Drp1” value in test [2] (DDQ post-treated (Aβ + DDQ) vs Aβ incubated cells) and in test [2] (DDQ pre-treated (DDQ + Aβ) vs Aβ incubated cells) was “reduced interaction” throughout. Further, the mitochondrial length entry is “not significantly changed” in test [3] (setting [6]); “significantly increased” in test [3] (setting [7]); “not significantly changed” in test [3] (setting [8]); “significantly increased” in test [3] (setting [9]); “significantly increased” in test [3] (setting [10]). Further, the number of mitochondria result was “approximately equal number” in test [3] (setting [6]); “reduced” in test [3] (setting [7]); “approximately equal number” in test [3] (setting [8]); “significantly reduced” in test [3] (setting [9]); “significantly reduced” in test [3] (setting [10]). For the same molecule, the ATP levels entry in test [4] (setting [6]) is listed as “Significantly increased levels”; in test [4] (Aβ + DDQ (Aβ1-42 6 hrs, then DDQ 24 hrs) vs Aβ incubated cells), “Significantly increased ATP levels”; in test [4] (setting [7]) it was “Significantly increased levels”; in test [4] (DDQ + Aβ (DDQ 24 hrs, then Aβ1-42 6 hrs) vs Aβ incubated cells), “Significantly increased ATP levels”. Further, the GTPase-Drp1 activity entry was “Significantly increased” in test [5] (setting [6]); “reduced” in test [5] (Aβ + DDQ (Aβ1-42 6 hrs, then DDQ 24 hrs) vs cells incubated with Aβ); “decreased levels” in test [5] (setting [7]); “reduced” in test [5] (DDQ + Aβ (DDQ 24 hrs, then Aβ1-42 6 hrs) vs cells incubated with Aβ).
